# Data as given in article PMC6546875, “Efficacy of Antimicrobial Peptide DP7, Designed by Machine-Learning Method, Against Methicillin-Resistant Staphylococcus aureus” (Frontiers in Microbiology, 2019).
# Several values for one entry are separate records, joined by “and”; a condition that tells them apart may be missing. Equal entries are not always repeated. Structures can show the parent of a compound that is named as a salt. Where two headings read alike, the source gives them in different places. Marks after values point to notes of the source that are not given here. No end group written: not given here.
# Tests used:
# [1] = system: S. aureus DP7-R; assay type: cell-based, Staphylococcus aureus; settings: change from 1× MIC (ATCC 25923) to n× MIC (DP7-R)
# Method: Subsequently, the bacterial samples were counted at different time points (0, 1, 2, 4, 6, 8, 18, and 24 h).
# For every 48 h, we transferred 2% of each culture to new flasks containing fresh medium with a twofold higher DP7 concentration. […] Aliquots from each population were stored in 20% glycerol at -80°C.
# [2] = system: S. aureus ATCC 25923; experiment: microbe, parasite or virus in culture; settings: Staphylococcus aureus, ATCC25923, 22 h, read-out: MIC for ATCC 25923
# [3] = system: S. aureus; experiment: In vitro time-killing assay; assay type: cell-based, Staphylococcus aureus; settings: Figure 1; S. aureus ATCC 25923 and ATCC 33591
# [4] = system: MRSA strain ATCC 33591; experiment: Murine model of MRSA blood stream infection; assay type: in vivo, C57 female mice; settings: 10 mg/kg i.v., 72 h, vs PBS-treated mice, n = 5
# Method: A well-characterized murine model of blood stream infection was employed to study the pharmacodynamics profiles of DP7 and compare them with those of vancomycin. Briefly, C57 female mice (body weight 17 g ± 1 g), purchased from Hua Fu Kang Biological Technology Co., Ltd (Beijing, China), were intravenously infected with 1 × 10^8 CFU/100 μL of MRSA strain ATCC 33591 in the logarithmic growth phase (recovery on defibrinated sheep blood agar, Oxoid, United Kingdom). One hour after infection, the mice were treated with various doses of DP7 (0.5, 1, and 2 mg/kg), while the mice in the control group were injected with the same volume of saline. Vancomycin at 10 mg/kg was used as the positive control. Survival and weight changes were observed every 24 h for 1 week. At 24 and 72 h, organs, including the heart, liver, spleen, lung, kidney, and blood were collected and the bacterial load was counted for each murine. At 72 h, the liver, spleen, lungs, and kidneys were fixed with 4% paraformaldehyde for 1 week, sectioned at 4 μm after processing for paraffin embedding, and then stained with hematoxylin and eosin (H&E). All animal procedures were approved and controlled by the Institutional Animal Care and Treatment Committee of Sichuan University and conducted according to the Animal Care and Use Guidelines of Sichuan University.
# [5] = system: S. aureus ATCC 25923; settings: superscript b; ref Shen et al., 2012; cited from earlier work
# Description: Table 1 MIC of various AMPs against S. aureus. | column: MIC for ATCC 25923 (mg/L) || Here, the antimicrobial peptide (AMP) DP7, a short 12 amino acid AMP with broad-spectrum antibacterial activities, was chosen to analyze its potential mechanisms for killing S. aureus.
# [6] = system: S. aureus ATCC 33591; settings: superscript b; ref Shen et al., 2012; cited from earlier work
# [7] = system: S. aureus ATCC 33591; assay type: cell-based, Staphylococcus aureus; settings: ATCC 33591, 22 h
# Method: (§1) The susceptibility testing methods were performed as previously described ([Wiegand et al., 2008]). […] The minimum bactericidal concentration (MBC) endpoint is the lowest concentration of antibacterial agent that kills > 99.9% of the initial bacterial population where no visible growth of bacteria was observed on nutrient agar plates. […] Subsequently, the bacterial samples were counted at different time points (0, 1, 2, 4, 6, 8, 18, and 24 h).
# [8] = system: S. aureus ATCC 25923
# [9] = system: E. coli (ATCC 25922); assay type: cell-based, Escherichia coli; settings: ATCC 25922, 22 h
# Method: as §1
# [10] = system: P. aeruginosa (PAO1); assay type: cell-based, Pseudomonas aeruginosa; settings: PAO1, 22 h
# Method: as §1
molecule,measurement,setting,value
CC[C@H]1OC(=O)[C@H](C)[C@@H](O[C@H]2C[C@@](C)(OC)[C@@H](O)[C@H](C)O2)[C@H](C)[C@@H](O[C@@H]2O[C@H](C)C[C@H](N(C)C)[C@H]2O)[C@](C)(O)C[C@@H](C)CN(C)[C@H](C)[C@@H](O)[C@]1(C)O [azithromycin],MIC for DP7-R as multiple of the MIC for ATCC 25923,[1],1 × MIC
same,MIC,[2],0.125 µg/mL
CNC(C)C1CCC(N)C(OC2C(N)CC(N)C(OC3OCC(C)(O)C(NC)C3O)C2O)O1 (stereo not shown) [gentamicin],MIC for DP7-R as multiple of the MIC for ATCC 25923,[1],4 × MIC
same,MIC use here (time-killing curves),[3],0.125 µg/mL
same,MIC,[2],0.0625 µg/mL
COc1c(N2C[C@@H]3CCCN[C@@H]3C2)c(F)cc2c(=O)c(C(=O)O)cn(C3CC3)c12 [moxifloxacin hydrochloride],MIC for DP7-R as multiple of the MIC for ATCC 25923,[1],1 × MIC
same,MIC,[2],0.125 µg/mL
"CCn1cc(C(=O)O)c(=O)c2cc(F)c(N3CCNCC3)cc21 [noroxin, norfloxacin]",MIC for DP7-R as multiple of the MIC for ATCC 25923,[1],2 × MIC
same,MIC use here (time-killing curves),[3],1 µg/mL
same,MIC,[2],1 µg/mL
CC1COc2c(N3CCN(C)CC3)c(F)cc3c(=O)c(C(=O)O)cn1c23 (stereo not shown) [ofloxacin],MIC for DP7-R as multiple of the MIC for ATCC 25923,[1],2 × MIC
same,MIC,[2],0.25 µg/mL
CO[C@H]1/C=C/O[C@@]2(C)Oc3c(C)c(O)c4c(O)c(c(/C=N/N5CCN(C)CC5)c(O)c4c3C2=O)NC(=O)/C(C)=C\C=C\[C@H](C)[C@H](O)[C@@H](C)[C@@H](O)[C@@H](C)[C@H](OC(C)=O)[C@@H]1C [rifampicin],MIC for DP7-R as multiple of the MIC for ATCC 25923,[1],1 × MIC
CN[C@H](CC(C)C)C(=O)N[C@H]1C(=O)N[C@@H](CC(N)=O)C(=O)N[C@H]2C(=O)N[C@H]3C(=O)N[C@H](C(=O)N[C@H](C(=O)O)c4cc(O)cc(O)c4-c4cc3ccc4O)[C@H](O)c3ccc(c(Cl)c3)Oc3cc2cc(c3O[C@@H]2O[C@H](CO)[C@@H](O)[C@H](O)[C@H]2O[C@H]2C[C@](C)(N)[C@H](O)[C@H](C)O2)Oc2ccc(cc2Cl)[C@H]1O [vancomycin],MIC for DP7-R as multiple of the MIC for ATCC 25923,[1],1 × MIC
same,MIC use here (time-killing curves),[3],0.25 µg/mL
same,"bacterial load in heart, liver, spleen, lung, kidney and blood",[4],statistically significant reductions
same,MIC,[2],0.25 µg/mL
"LLGDFFRKSKEKIGKEFKRI VQRIKDFLRNLVPRTES [LL-37, antimicrobial peptide, 37 amino acids]",MIC for ATCC 25923,[5],14 mg/L and 14^b mg/L
same,MIC for ATCC 33591,[6],28^b mg/L
RLARIVVIRVAR [Bac2A],MIC for ATCC 33591,[7],43.7^a mg/L
VQLRIRVAVIRA [HH2],MIC for ATCC 33591,[7],64^a mg/L
same,MIC for ATCC 25923,"[8]; ATCC 25923, 22 h",64 mg/L
VQLRIRVCVIRK [DP8],MIC for DP7-R as multiple of the MIC for ATCC 25923,[1],4 × MIC
same,MIC for ATCC 25923,"[8]; ATCC 25923, 22 h",16 mg/L
VQLRIRVCVIRK [DP10],MIC for DP7-R as multiple of the MIC for ATCC 25923,[1],4 × MIC
same,MIC for ATCC 25923,"[8]; logarithmic growth-phase bacteria, 37°C, 22 h, OD600",64 mg/L
VQWRIRVAVIRK [DP7],MBC,[7],64 µg/mL
same,MIC for ATCC 33591,[7],16^a mg/L
same,MBC,[9],64 µg/mL
same,MIC,[9],16 µg/mL
same,MBC,[10],64 µg/mL
same,MIC,[10],16 µg/mL
same,MBC,"[8]; ATCC 25923, 22 h",64 µg/mL
same,MIC for ATCC 25923,"[8]; ATCC 25923, 22 h",16^a mg/L
